The values that follow come from ChEMBL document CHEMBL1152150, “Interaction of ladder-shaped polyethers with transmembrane alpha-helix of glycophorin A as evidenced by saturation transfer difference NMR and surface plasmon resonance” (Bioorg Med Chem Lett, 2008).

Each structure is given as a SMILES string. Activity calls are given as the source filed them. No cut-off for these calls is given here.

The target in assay [1] is T1, Glycophorin-A (Homo sapiens, UniProt P02724). In words: Binding affinity to transmembrane alpha-helix of glycophorin A by surface plasmon resonance method. In general terms: In SPR one partner is held on a chip, and binding of the other changes the refractive index at the surface.
A short description of assay [2]: Binding affinity to transmembrane alpha-helix of glycophorin A 2G/2I mutant by surface plasmon resonance method.
For assay [3], the target named is T1, Glycophorin-A. In words: Binding affinity to transmembrane alpha-helix of glycophorin A by saturation transfer difference NMR.

T1 sequence (P02724 whole entry): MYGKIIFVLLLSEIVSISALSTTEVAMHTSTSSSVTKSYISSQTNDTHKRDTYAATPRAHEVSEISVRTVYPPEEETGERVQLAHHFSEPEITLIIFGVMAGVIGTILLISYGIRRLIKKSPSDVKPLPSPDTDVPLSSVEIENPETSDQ

As to `C=CCC(=C)/C=C/[C@@](C)(O)[C@H]1O[C@@H]2C[C@@H]3O[C@@H]4C[C@@H]5O[C@@H]6C[C@@H]7O[C@@H]8C[C@@H]9O[C@@H]%10C[C@@H]%11O[C@](C)(CCOS(=O)(=O)O)[C@@H](OS(=O)(=O)O)C[C@H]%11O[C@H]%10C[C@H]9O[C@H]8CC[C@@]7(C)O[C@@]6(C)CC[C@H](C)[C@H]5O[C@H]4C[C@@]3(C)O[C@H]2CC1=C` [YESSOTOXIN], the values for the Kd (at Glycophorin-A [1]; in assay [2]) were 120 µM and 85 µM, respectively. For the same compound, the outcome at Glycophorin-A [3] was Active.

As for `C[C@@]12CC[C@@H]3O[C@@H]4C[C@@H]5O[C@@H]6C[C@H](O)[C@@H](CO)O[C@H]6CC[C@@]5(C)O[C@H]4C[C@H]3O[C@H]1C[C@H]1O[C@@H](CCOCc3ccccc3)[C@H](OCc3ccccc3)C[C@@H]1O2`, the Kd (commonly a measure of binding affinity in units of concentration) at Glycophorin-A [1] stood at 48 µM; in assay [2], 7.7 µM.

Take `OC[C@H]1O[C@@H](COCc2ccccc2)[C@H](OCc2ccccc2)C[C@@H]1O`: the Kd at Glycophorin-A [1] is 2400 µM; in assay [2], 860 µM.

For the compound `C[C@@]12CC[C@@H]3O[C@H](CO)[C@@H](O)C[C@H]3O[C@H]1C[C@H]1O[C@@H](COCc3ccccc3)[C@H](OCc3ccccc3)C[C@@H]1O2`, the Kd amounted to 240 µM at Glycophorin-A [1] and 150 µM in assay [2].

With `C=CCC(=C)/C=C/[C@@](C)(O)[C@H]1O[C@@H]2C[C@@H]3O[C@@H]4C[C@@H]5O[C@@H]6C[C@@H]7O[C@@H]8C[C@@H]9O[C@@H]%10C[C@@H]%11O[C@](C)(CCO)[C@@H](O)C[C@H]%11O[C@H]%10C[C@H]9O[C@H]8CC[C@@]7(C)O[C@@]6(C)CC[C@H](C)[C@H]5O[C@H]4C[C@@]3(C)O[C@H]2CC1=C` [DESULFATED YESSOTOXIN], the figures for the Kd (on Glycophorin-A [1]; in assay [2]) were 270 µM and 99 µM, respectively.
